The text below walks through data of patent US5284829A, “Synthetic tetrapeptides for the prevention of schistosome parasite infection” (priority 1991, dated 1994).

By Km is commonly meant the concentration of substrate that gives half-maximal velocity. One may read the Ki as the equilibrium dissociation constant of an inhibitor or competing ligand from its target. Broadly, the IC50 is the concentration that gives 50% inhibition.

Where a SMILES comes first, the peptide text is derived from it. [ ]: non-standard residue; d: D form. The star is where a group is joined. pNA = O=[N+]([O-])c1ccc(N*)cc1; AMC = Cc1cc(=O)oc2cc(N*)ccc12; MeOSuc = COC(=O)CCC(=O)*; Nle = CCCC[C@H](N)C(=O)O; SBn = c1ccc(CS*)cc1; CH2Cl = ClC* Some results are limits rather than exact numbers.

Cercarial Proteinase, sequence (P12546 28-264): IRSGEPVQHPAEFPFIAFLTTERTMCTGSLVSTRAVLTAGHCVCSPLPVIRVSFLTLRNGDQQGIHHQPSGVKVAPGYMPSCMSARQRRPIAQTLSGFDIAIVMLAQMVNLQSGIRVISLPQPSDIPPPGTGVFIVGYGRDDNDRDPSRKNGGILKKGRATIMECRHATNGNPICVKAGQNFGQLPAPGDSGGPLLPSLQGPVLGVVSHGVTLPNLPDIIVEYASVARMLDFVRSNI
T1 sequence (P12546 28-264): as above

The first test addresses T1, cercarial protease (Schistosoma mansoni, UniProt P12546).
T1 construct: Serine protease was isolated from the acetabular glands of cercariae as described previously in McKerrow et al., 1985; from tissue; host or cells: acetabular glands of cercariae
Assay: not given
The test is classed as biochemical. The note with it: substrate hydrolysis, 100 mM glycine/NaOH, 2 mM CaCl2, pH 9.0; Lineweaver-Burk. How it is done:
Serine protease was isolated from the acetabular glands of cercariae as described previously in McKerrow et al., 1985. J. Biol. Chem. 260, 3703-3707. All tetrapeptide thioester (Sbzl) substrates with the exception of MeO-Suc-Ala-Ala-Pro-Lys-Sbzl (a gift from Dr. James C. Powers, School of Chemistry, Georgia Institute of Technology, Atlanta, Ga.) were purchased from Enzyme System Products (Dublin, Calif.). Stock solutions (25 mM) of all substrates were prepared in dimethyl sulfoxide (DMSO). Rates of hydrolysis of substrates were measured by adding 1-10 μl of substrate and 25 μl of 1 mM 4,4'-dithiodipyridine in DMSO to buffer (100 mM glycine/NaOH, 2 mM CaCl2, pH 9.0) to give a total volume of 1.0 ml. A 10 μl enzyme sample was added to start the reaction. The increase in the absorbance at 325 nm was followed on a Gilford spectrophotometer. An ε value of 19,800 was used for the thiopyridine production.
Assays of paranitroanilide (pNA) and 7-amino-4-methyl coumarin (AMC) derivatized peptides were carried out as described in McKerrow et al., 1985. J. Biol. Chem. 260, 3703-3707. MeO-Suc-Ala-Ala-Pro-Phe-pNA was from Vega Biochemicals, Tucson, Az. MeO-Suc-Ala-Ala-Pro-Leu-pNA was a gift of Dr. David Agard, Department of Biochemistry, UCSF. All other pNA substrates were a gift of Dr. Corey Largman, Veterans Administration Hospital, Martinez, Calif. All AMC substrates were from Enzyme Systems Products, Dublin, Calif.
For each peptide substrate, the substrate concentration range was varied over ten-fold. The kinetic constants were determined from the initial rates of product formation using a least squares analysis according to method of Lineweaver-Burk (Lineweaver, H. & Burk, D. 1934. J. Am. Chem. Soc. 56, 658).
Take `COC(=O)CCC(=O)N[C@@H](C)C(=O)N[C@@H](C)C(=O)N1CCC[C@H]1C(=O)N[C@@H](CC(C)C)C(=O)SCc1ccccc1` [MeO-Suc-Ala-Ala-Pro-Leu-Sbzl] (MeOSuc-AAPL-SBn): the Michaelis constant (Km) is 464 µM.
Still for that read-out and setting: the value for `COC(=O)CCC(=O)N[C@@H](C)C(=O)N[C@@H](C)C(=O)N1CCC[C@H]1C(=O)N[C@@H](CC(C)C)C(=O)Nc1ccc([N+](=O)[O-])cc1` [MeO-Suc-Ala-Ala-Pro-Leu-pNA] (MeOSuc-AAPL-pNA) was 118 µM.
The same measure, in the same setting: the value for `COC(=O)CCC(=O)N[C@@H](C)C(=O)N[C@@H](C)C(=O)N1CCC[C@H]1C(=O)N[C@@H](CCSC)C(=O)Nc1ccc([N+](=O)[O-])cc1` [MeO-Suc-Ala-Ala-Pro-Met-pNA] (MeOSuc-AAPM-pNA) was 300 µM; that for `CCCC[C@H](NC(=O)[C@@H]1CCCN1C(=O)[C@H](C)NC(=O)[C@H](C)NC(=O)CCC(=O)OC)C(=O)Nc1ccc([N+](=O)[O-])cc1` [MeO-Suc-Ala-Ala-Pro-Nle-pNA] (MeOSuc-AAP[Nle]-pNA) was 300 µM; that for `COC(=O)CCC(=O)N[C@@H](C)C(=O)N[C@@H](C)C(=O)N1CCC[C@H]1C(=O)N[C@@H](Cc1ccccc1)C(=O)SCc1ccccc1` [MeO-Suc-Ala-Ala-Pro-Phe-Sbzl] (MeOSuc-AAPF-SBn) was 96 µM.
Consider `COC(=O)CCC(=O)N[C@@H](C)C(=O)N[C@@H](C)C(=O)N1CCC[C@H]1C(=O)N[C@@H](Cc1ccccc1)C(=O)Nc1ccc([N+](=O)[O-])cc1` [MeO-Suc-Ala-Ala-Pro-Phe-pNA] (MeOSuc-AAPF-pNA), for which the Km was found to be 119 µM.
For the compound `COC(=O)CCC(=O)N[C@@H](Cc1ccccc1)C(=O)N[C@@H](C)C(=O)N1CCC[C@H]1C(=O)N[C@@H](Cc1ccccc1)C(=O)SCc1ccccc1` [MeO-Suc-Phe-Ala-Pro-Phe-Sbzl] (MeOSuc-FAPF-SBn), the Km turned out to be 244 µM.

The same test, now with this note: very low activity = absorbance change less than 0.001 O.D. in 40 min with 1.5 mM substrate.
Take `COC(=O)CCC(=O)N[C@@H](C)C(=O)N[C@@H](C)C(=O)N1CCC[C@H]1C(=O)N[C@@H](C)C(=O)Nc1ccc2c(C)cc(=O)oc2c1` [MeO-Suc-Ala-Ala-Pro-Ala-AMC] (MeOSuc-AAPA-{AMC}): the “substrate hydrolysis activity (in words)” value is recorded as “no activity”.
Same read-out and setting: the same measure for `COC(=O)CCC(=O)N[C@@H](C)C(=O)N[C@@H](C)C(=O)N1CCC[C@H]1C(=O)N[C@@H](C)C(=O)SCc1ccccc1` [MeO-Suc-Ala-Ala-Pro-Ala-Sbzl] (MeOSuc-AAPA-SBn): “no activity”.
In the case of `COC(=O)CCC(=O)N[C@@H](C)C(=O)N[C@@H](C)C(=O)N1CCC[C@H]1C(=O)N[C@@H](CCCCN)C(=O)SCc1ccccc1` [MeO-Suc-Ala-Ala-Pro-Lys-Sbzl] (MeOSuc-AAPK-SBn), the “substrate hydrolysis activity (in words)” value was “no activity”.
`COC(=O)CCC(=O)N[C@@H](C)C(=O)N[C@@H](C)C(=O)N1CCC[C@H]1C(=O)N[C@H](C(=O)Nc1ccc2c(C)cc(=O)oc2c1)C(C)C` [MeO-Suc-Ala-Ala-Pro-Val-AMC] (MeOSuc-AAPV-{AMC}): the “substrate hydrolysis activity (in words)” value is reported as “no activity”.
Consider `COC(=O)CCC(=O)N[C@@H](Cc1c[nH]c2ccccc12)C(=O)N[C@@H](C)C(=O)N1CCC[C@H]1C(=O)N[C@@H](Cc1ccccc1)C(=O)SCc1ccccc1` [MeO-Suc-Trp-Ala-Pro-Phe-Sbzl] (MeOSuc-WAPF-SBn), for which the “substrate hydrolysis activity (in words)” value was “no activity”.

A further test addresses T1, cercarial protease. In words: biochemical.
Conditions: not given
How it is done:
(§1) The chloromethyl ketone-derivatized peptide inhibitors were designed by us based on our computer model, and synthesized for us by Enzyme System Products (Dublin, Calif.). Stock solutions of inhibitors (25 mM) were prepared in dimethyl sulfoxide (DMSO). The rate of irreversible inactivation of the protease was followed by withdrawing a 25 μl sample at 4 time intervals after mixing 125 μl of enzyme with 5 μl of inhibitor. Kitz and Wilson's methods of analysis were used for calculation of Ki, k3, and k3 /Ki (Kitz R. & Wilson, I. B. 1962. J. Biol. Chem. 237, 3245) using MeO-Suc-Ala-Ala-Pro-Phe-Sbzl (Sbzl, benzyl thioester) as substrate. Inactivation constants for the boronic acid-derivatized peptides (MeO-Suc-Ala-Ala-Pro (D or L) boro-Phe-OH, a gift from Dr. Charles Kettner, E. I. Dupont de Nemours, Wilmington, Del.) were calculated using MeO-Suc-Ala-Ala-Pro-Phe-Sbzl as the substrate at 125 and 250 μM. Five different concentrations of each inhibitor were used per substrate concentration. The data were plotted according to Dixon and kinactivation values were extrapolated from the graph (Dixon, 1953. Biochem. J. 55, 170-171).
Compound `COC(=O)CCC(=O)N[C@@H](C)C(=O)N[C@@H](C)C(=O)N1CCC[C@H]1C(=O)N[C@@H](CC(C)C)C(=O)CCl` [MeO-Suc-Ala-Ala-Pro-Leu-CMK] (MeOSuc-AAPL-CH2Cl) returned an inhibition constant (Ki) of 12 µM.
The same measure, in the same setting: the same measure for `COC(=O)CCC(=O)N[C@@H](C)C(=O)N[C@@H](C)C(=O)N1CCC[C@H]1C(=O)N[C@@H](Cc1ccccc1)C(=O)CCl` [MeO-Suc-Ala-Ala-Pro-Phe-CMK] (MeOSuc-AAPF-CH2Cl): 13 µM.
On to `COC(=O)CCC(=O)N[C@@H](C)C(=O)N[C@@H](C)C(=O)N1CCC[C@H]1C(=O)N[C@@H](Cc1c[nH]c2ccccc12)C(=O)CCl` [MeO-Suc-Ala-Ala-Pro-Trp-CMK] (MeOSuc-AAPW-CH2Cl), for which the affinity corresponds to a Ki of 20 µM. Against the preceding compound, the Ki is about 1.5-fold higher.
Still for that read-out and setting: the same measure for `COC(=O)CCC(=O)N[C@@H](C)C(=O)N[C@@H](CCCCN)C(=O)N1CCC[C@H]1C(=O)N[C@@H](Cc1ccccc1)C(=O)CCl` [MeO-Suc-Ala-Lys-Pro-Phe-CMK]: 7 µM; for `COC(=O)CCC(=O)N[C@@H](Cc1ccccc1)C(=O)N[C@@H](C)C(=O)N1CCC[C@H]1C(=O)N[C@@H](Cc1ccccc1)C(=O)CCl` [MeO-Suc-Phe-Ala-Pro-Phe-CMK] (MeOSuc-FAPF-CH2Cl): 1 µM.
With `COC(=O)CCC(=O)N[C@@H](Cc1c[nH]c2ccccc12)C(=O)N[C@@H](C)C(=O)N1CCC[C@H]1C(=O)N[C@@H](CC(C)C)C(=O)CCl` [MeO-Suc-Trp-Ala-Pro-Leu-CMK] (MeOSuc-WAPL-CH2Cl), the inhibition constant Ki was found to be 2 µM.
Same read-out and setting: the same measure for `COC(=O)CCC(=O)N[C@@H](Cc1c[nH]c2ccccc12)C(=O)N[C@@H](C)C(=O)N1CCC[C@H]1C(=O)N[C@@H](Cc1ccccc1)C(=O)CCl` [MeO-Suc-Trp-Ala-Pro-Phe-CMK] (MeOSuc-WAPF-CH2Cl): 12 µM.

A further test addresses Cercarial Proteinase (Schistosoma mansoni, UniProt P12546). In words: biochemical.
Conditions: not given
The procedure:
as §1, with “Kitz and Wilson's methods of analysis were used for calculation of Ki, k3, and k3 /Ki (Kitz R. & Wilson, I.” left out
Therefore a boronic acid derivatized peptide analogous to the chloromethyl ketone derivatized Ala-Ala-Pro-Phe sequence was also tested. […] Stereoisomers of the same peptide were also evaluated.
For `COC(=O)CCC(=O)N[C@@H](C)C(=O)N[C@@H](C)C(=O)N1CCC[C@H]1C(=O)N[C@@H](C)C(=O)CCl` [MeO-Suc-Ala-Ala-Pro-Ala-CMK] (MeOSuc-AAPA-CH2Cl), the IC50 is more than 100 µM.
Still for that read-out and setting: the same measure for `COC(=O)CCC(=O)N[C@@H](C)C(=O)N[C@@H](C)C(=O)N1CCC[C@H]1C(=O)N[C@@H](CC(C)C)C(=O)CCl` [MeO-Suc-Ala-Ala-Pro-Leu-CMK] (MeOSuc-AAPL-CH2Cl): 0.036 µM; for `COC(=O)CCC(=O)N[C@@H](C)C(=O)N[C@@H](C)C(=O)N1CCC[C@H]1C(=O)N[C@@H](Cc1ccccc1)C(=O)CCl` [MeO-Suc-Ala-Ala-Pro-Phe-CMK] (MeOSuc-AAPF-CH2Cl): 0.088 µM.

The next test deals with cercariae of Schistosoma mansoni (Puerto Rican strain).
Assay: not given
The test is classed as cell-based. The note with it: 50 micromolar. The procedure: A modification of the assay developed by Clegg and Smithers (Clegg & Smithers, 1972. Int. J. Parasitol. 2, 79-98.) was used. Two Plexiglass chambers were manufactured which could be screwed together to hold a 25×25 mm section of skin at the interface of the two chambers. Human skin was obtained from autopsy (6-12 hours following death) or from amputation specimens received at the Department of Surgical Pathology, UCSF. The chamber below the skin was filled with tissue culture medium (DME H16) prewarmed to 37° C. After the skin was clamped, the upper chamber was filled with water containing 9000 cercariae of Schistosoma mansoni (Puerto Rican strain). Cercariae will follow a thermal gradient, and they are stimulated by the lipid on the surface of skin to invade (Stirewalt, 1974. Adv. Parasitol. 12, 115-180). After one hour exposure to cercariae the skin was removed, fixed in 10% phosphate buffered formalin for 24 h, and sectioned at 2 mm intervals. Following dehydration and routine paraffin embedding, 5μ sections were cut by microtome and stained with hemotoxylin and eosin. The number of cercariae which had invaded epidermis or dermis was counted in each section. Percent inhibition of invasion was calculated as [formula] All assays were done in triplicate and standard deviation of the mean calculated. […]
In the case of `COC(=O)CCC(=O)N[C@@H](C)C(=O)N[C@@H](C)C(=O)N1CCC[C@H]1C(=O)N[C@H](Cc1ccccc1)B(O)O` [MeO-Suc-Ala-Ala-Pro-(D)boro-Phe-OH], the “cercariae inhibited from invading skin” value is recorded as “less than 20%”.
